Broadly, the IC50 is the concentration that gives 50% inhibition.

The source of these data is patent publication US11306084B2, “Integrin antagonists” (Saint Louis University, priority 2016, dated 2022).

What all share (format): binding
The target of assay [1] is T1, Recombinant human integrin ανβ3 (Homo sapiens, UniProt P05106+P06756).
T1 construct: purchased R&D Systems 3050-AV
As to the kind of experiment: Solid Phase Receptor Assay (SPRA) for ανβ3 function. The following applies: for IC50: plate-bound human vitronectin, read-out: αvβ3 SPRA IC50.

The target of assay [2] is T2, Recombinant human integrin ανβ6 (Homo sapiens, UniProt P06756+P18564).
T2 construct: purchased R&D Systems 3817-AV
Kind of assay: Solid Phase Receptor Assay (SPRA) for ανβ6 function. The following applies: for IC50: plate-bound human LAP, read-out: αvβ6 SPRA IC50.

Assay [3] deals with T3, Recombinant human integrin ανβ1 (Homo sapiens, UniProt P05556+P06756).
T3 construct: purchased R&D Systems 6579-AV
As to the kind of experiment: Solid Phase Receptor Assay (SPRA) for ανβ1 function. As to conditions: for IC50: plate-bound human fibronectin, read-out: αvβ1 SPRA IC50.

Assay [4] addresses T4, Recombinant human integrin α5β1 (Homo sapiens, UniProt P05556+P08648).
T4 construct: purchased R&D Systems 3230-A5
Kind of assay: Solid Phase Receptor Assay (SPRA) for α5β1 function. As to conditions: for IC50: plate-bound human fibronectin.

SMILES strings stand for the structures. Where a name gives a salt, the structure may show the parent alone.

T3 sequence (P06756 31-992 limits assumed): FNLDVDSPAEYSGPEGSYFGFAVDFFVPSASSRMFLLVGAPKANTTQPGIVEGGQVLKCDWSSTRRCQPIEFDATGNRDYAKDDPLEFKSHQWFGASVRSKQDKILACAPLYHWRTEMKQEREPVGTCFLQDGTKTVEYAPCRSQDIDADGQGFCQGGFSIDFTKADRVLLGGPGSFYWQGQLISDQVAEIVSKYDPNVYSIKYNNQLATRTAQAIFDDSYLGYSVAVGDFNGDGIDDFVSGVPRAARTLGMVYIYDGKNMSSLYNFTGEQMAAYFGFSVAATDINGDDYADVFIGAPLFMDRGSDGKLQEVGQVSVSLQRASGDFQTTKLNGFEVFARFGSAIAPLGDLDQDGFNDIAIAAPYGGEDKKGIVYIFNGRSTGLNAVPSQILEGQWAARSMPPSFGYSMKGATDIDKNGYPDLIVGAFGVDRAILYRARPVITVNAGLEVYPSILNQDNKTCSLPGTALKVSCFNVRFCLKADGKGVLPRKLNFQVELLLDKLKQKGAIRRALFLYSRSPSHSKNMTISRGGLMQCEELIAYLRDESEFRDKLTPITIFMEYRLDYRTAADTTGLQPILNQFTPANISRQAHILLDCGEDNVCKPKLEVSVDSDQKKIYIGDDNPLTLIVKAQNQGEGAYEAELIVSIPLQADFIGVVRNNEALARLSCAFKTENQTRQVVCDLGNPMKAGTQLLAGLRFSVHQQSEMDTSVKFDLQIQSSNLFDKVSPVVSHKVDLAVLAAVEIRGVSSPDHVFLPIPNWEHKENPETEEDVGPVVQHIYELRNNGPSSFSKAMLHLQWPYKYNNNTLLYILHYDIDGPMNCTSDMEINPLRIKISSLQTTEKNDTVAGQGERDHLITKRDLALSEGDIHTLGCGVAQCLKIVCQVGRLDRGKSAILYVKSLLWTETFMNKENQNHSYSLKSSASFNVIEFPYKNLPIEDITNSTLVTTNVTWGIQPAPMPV
T3 sequence (P05556 21-728 limits assumed): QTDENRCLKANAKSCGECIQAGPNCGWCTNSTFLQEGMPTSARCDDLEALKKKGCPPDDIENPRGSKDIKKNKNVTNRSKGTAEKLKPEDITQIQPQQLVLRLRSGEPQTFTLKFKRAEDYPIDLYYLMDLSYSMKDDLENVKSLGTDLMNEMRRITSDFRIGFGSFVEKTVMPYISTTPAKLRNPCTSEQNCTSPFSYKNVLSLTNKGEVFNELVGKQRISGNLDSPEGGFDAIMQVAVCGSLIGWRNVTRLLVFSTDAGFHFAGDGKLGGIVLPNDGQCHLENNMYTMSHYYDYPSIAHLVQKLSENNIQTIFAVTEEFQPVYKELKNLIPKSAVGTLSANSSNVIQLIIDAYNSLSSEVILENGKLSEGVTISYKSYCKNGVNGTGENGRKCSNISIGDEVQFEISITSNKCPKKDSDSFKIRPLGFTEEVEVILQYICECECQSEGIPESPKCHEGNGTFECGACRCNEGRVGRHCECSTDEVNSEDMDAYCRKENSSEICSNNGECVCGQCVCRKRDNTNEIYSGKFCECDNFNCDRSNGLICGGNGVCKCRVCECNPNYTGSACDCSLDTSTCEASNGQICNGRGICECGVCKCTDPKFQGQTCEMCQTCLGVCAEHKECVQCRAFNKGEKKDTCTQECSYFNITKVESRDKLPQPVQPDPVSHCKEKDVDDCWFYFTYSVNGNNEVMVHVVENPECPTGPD
T1 sequence (P06756 31-992 limits assumed): as the sequence (P06756 31-992 limits assumed) above
T1 sequence (P05106 27-718 limits assumed): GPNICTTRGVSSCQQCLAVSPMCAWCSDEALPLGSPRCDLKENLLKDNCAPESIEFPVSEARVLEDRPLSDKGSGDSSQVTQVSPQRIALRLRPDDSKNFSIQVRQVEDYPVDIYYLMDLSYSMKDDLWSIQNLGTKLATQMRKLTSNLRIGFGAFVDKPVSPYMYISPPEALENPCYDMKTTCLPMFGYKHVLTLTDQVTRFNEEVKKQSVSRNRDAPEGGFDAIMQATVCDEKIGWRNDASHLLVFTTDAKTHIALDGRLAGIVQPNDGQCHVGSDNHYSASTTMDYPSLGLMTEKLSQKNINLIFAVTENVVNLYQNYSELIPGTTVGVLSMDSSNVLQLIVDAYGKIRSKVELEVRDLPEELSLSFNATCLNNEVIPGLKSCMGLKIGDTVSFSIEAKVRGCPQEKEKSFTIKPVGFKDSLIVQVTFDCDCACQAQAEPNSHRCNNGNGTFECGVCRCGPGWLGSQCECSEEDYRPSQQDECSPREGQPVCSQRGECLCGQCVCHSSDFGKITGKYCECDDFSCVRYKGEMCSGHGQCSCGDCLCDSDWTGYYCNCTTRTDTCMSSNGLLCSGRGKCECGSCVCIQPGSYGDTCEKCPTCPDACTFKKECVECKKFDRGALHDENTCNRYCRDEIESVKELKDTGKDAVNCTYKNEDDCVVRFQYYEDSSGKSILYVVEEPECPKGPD
T2 sequence (P06756 31-992 limits assumed): as the sequence (P06756 31-992 limits assumed) above
T2 sequence (P18564 22-707 limits assumed): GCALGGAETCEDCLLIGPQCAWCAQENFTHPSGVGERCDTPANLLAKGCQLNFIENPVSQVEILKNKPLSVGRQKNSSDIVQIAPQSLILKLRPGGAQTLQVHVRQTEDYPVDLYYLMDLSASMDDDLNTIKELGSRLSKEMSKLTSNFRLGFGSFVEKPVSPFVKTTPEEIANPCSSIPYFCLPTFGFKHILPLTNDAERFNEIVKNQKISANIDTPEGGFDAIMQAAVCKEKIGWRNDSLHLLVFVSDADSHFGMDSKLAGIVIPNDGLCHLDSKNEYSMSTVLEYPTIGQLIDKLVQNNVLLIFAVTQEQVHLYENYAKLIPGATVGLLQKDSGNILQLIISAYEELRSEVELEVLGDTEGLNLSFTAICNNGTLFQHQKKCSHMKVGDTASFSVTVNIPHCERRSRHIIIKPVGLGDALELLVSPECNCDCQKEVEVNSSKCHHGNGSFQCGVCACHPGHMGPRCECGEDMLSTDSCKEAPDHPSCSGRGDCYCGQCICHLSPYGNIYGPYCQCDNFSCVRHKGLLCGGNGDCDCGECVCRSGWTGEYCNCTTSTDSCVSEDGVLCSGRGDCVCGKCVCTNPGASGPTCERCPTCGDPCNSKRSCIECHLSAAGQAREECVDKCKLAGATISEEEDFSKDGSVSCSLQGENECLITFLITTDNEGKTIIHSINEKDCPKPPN
T4 sequence (P08648 42-995 limits assumed): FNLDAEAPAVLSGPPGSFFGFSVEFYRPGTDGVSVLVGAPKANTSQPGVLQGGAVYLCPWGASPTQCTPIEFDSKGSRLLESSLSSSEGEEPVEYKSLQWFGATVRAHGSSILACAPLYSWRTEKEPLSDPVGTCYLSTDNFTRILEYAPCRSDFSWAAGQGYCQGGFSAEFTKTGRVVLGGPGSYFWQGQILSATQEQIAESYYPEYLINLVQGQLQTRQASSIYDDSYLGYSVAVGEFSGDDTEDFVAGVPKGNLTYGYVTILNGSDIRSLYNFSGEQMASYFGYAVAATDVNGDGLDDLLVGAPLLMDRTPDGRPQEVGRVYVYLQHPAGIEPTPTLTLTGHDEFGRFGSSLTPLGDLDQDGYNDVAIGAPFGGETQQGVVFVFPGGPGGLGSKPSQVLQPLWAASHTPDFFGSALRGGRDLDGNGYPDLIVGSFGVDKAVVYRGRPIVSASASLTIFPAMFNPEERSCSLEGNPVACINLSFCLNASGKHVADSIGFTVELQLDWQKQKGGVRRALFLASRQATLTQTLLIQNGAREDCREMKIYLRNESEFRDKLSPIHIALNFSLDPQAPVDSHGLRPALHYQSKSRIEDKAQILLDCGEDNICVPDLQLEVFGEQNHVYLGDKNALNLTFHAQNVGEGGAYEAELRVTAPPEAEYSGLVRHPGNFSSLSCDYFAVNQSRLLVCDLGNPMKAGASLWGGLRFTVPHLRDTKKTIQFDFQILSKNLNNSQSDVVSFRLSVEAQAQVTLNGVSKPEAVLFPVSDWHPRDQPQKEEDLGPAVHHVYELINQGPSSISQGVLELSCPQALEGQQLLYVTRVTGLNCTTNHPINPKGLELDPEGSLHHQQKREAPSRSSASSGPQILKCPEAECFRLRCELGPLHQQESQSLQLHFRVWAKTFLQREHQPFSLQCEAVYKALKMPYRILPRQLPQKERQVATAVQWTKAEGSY
T4 sequence (P05556 21-728 limits assumed): as the sequence (P05556 21-728 limits assumed) above

Regarding `Cn1nc(CC(CC(=O)O)c2cc(F)cc(C(C)(C)C(F)(F)F)c2)cc1OCCc1ccc2c(n1)NCCC2` (centres unmarked) [Example 24, 3-(3-fluoro-5-(1,1,1-trifluoro-2-methylpropan-2-yl)phenyl)-4-(1-methyl-5-(2-(5,6,7,8-tetrahydro-1,8-naphthyridin-2-yl)ethoxy)-1H-pyrazol-3-yl)butanoic Acid], the half-inhibitory concentration (IC50) in assay [1] came out at 4.5 nM; in assay [2], 110 nM; in assay [3] it was 4.4 nM; in assay [4], 15 nM.
The like results for `Cn1nc(CC(CC(=O)O)c2cc(C(F)(F)F)cc(C(C)(C)C(F)(F)F)c2)cc1OCCc1ccc2c(n1)NCCC2` (centres unmarked) [Example 25, 4-[1-methyl-5-[2-(5,6,7,8-tetrahydro-1,8-naphthyridin-2-yl)ethoxy]pyrazol-3-yl]-3-[3-(2,2,2-trifluoro-1,1-dimethylethyl)-5-(trifluoromethyl)phenyl]butanoic Acid] were, in that order, 4.6 nM, 25 nM, 3.1 nM and 12 nM.
The like results for `Cn1nc(CC(CC(=O)O)c2cc(Br)cc(C(C)(C)C(F)(F)F)c2)cc1OCCc1ccc2c(n1)NCCC2` (centres unmarked) [Example 26, 3-[3-bromo-5-(2,2,2-trifluoro-1,1-dimethyl-ethyl)phenyl]-4-[1-methyl-5-[2-(5,6,7,8-tetrahydro-1,8-naphthyridin-2-yl)ethoxy]pyrazol-3-yl]butanoic Acid] were, in that order, 9.6 nM, 45 nM, 6.8 nM and 16 nM.
The like results for `Cn1nc(CC(CC(=O)O)c2cc(Cl)cc(C(C)(C)C(F)(F)F)c2)cc1OCCc1ccc2c(n1)NCCC2` (centres unmarked) [Example 27, 3-(3-chloro-5-(1,1,1-trifluoro-2-methylpropan-2-yl)phenyl)-4-(1-methyl-5-(2-(5,6,7,8-tetrahydro-1,8-naphthyridin-2-yl)ethoxy)-1H-pyrazol-3-yl)butanoic Acid] were, in that order, 5.6 nM, 47 nM, 4.4 nM and 18 nM.
With `Cn1nc(CC(CC(=O)O)c2cc(C#N)cc(C(C)(C)C(F)(F)F)c2)cc1OCCc1ccc2c(n1)NCCC2` (centres unmarked) [Example 28, 3-[3-cyano-5-(2,2,2-trifluoro-1,1-dimethyl-ethyl)phenyl]-4-[1-methyl-5-[2-(5,6,7,8-tetrahydro-1,8-naphthyridin-2-yl)ethoxyl]pyrazol-3-yl]butanoic Acid Trifluoroacetate], the IC50 in assay [1] came out at 10 nM; in assay [2], 15 nM; in assay [3] it was 3.9 nM; in assay [4], 8.5 nM.
The like results for `COCC1(c2cc(Cl)cc(C(CC(=O)O)Cc3cc(OCCc4ccc5c(n4)NCCC5)n(C)n3)c2)CCOCC1` (centres unmarked) [Example 29, 3-(3-chloro-5-(4-(methoxymethyl)tetrahydro-2H-pyran-4-yl)phenyl)-4-(1-methyl-5-(2-(5,6,7,8-tetrahydro-1,8-naphthyridin-2-yl)ethoxy)-1H-pyrazol-3-yl)butanoic Acid] were, in that order, 5.3 nM, 52 nM, 9.4 nM and 5.1 nM.
Regarding `COCC1(c2cc(F)cc(C(CC(=O)O)Cc3cc(OCCc4ccc5c(n4)NCCC5)n(C)n3)c2)CCOCC1` (centres unmarked) [Example 30, 3-(3-fluoro-5-(4-(methoxymethyl)tetrahydro-2H-pyran-4-yl)phenyl)-4-(1-methyl-5-(2-(5,6,7,8-tetrahydro-1,8-naphthyridin-2-yl)ethoxy)-1H-pyrazol-3-yl)butanoic Acid], the IC50 in assay [1] turned out to be 8.1 nM; in assay [2], 180 nM; in assay [3] it was 6.6 nM; in assay [4] it was 12 nM.
`COCC1(c2cc(C(CC(=O)O)Cc3cc(OCCc4ccc5c(n4)NCCC5)n(C)n3)cc(C(F)(F)F)c2)CCOCC1` (centres unmarked) [Example 31, 3-(3-(4-(methoxymethyl)tetrahydro-2H-pyran-4-yl)-5-(trifluoromethyl)phenyl)-4-(1-methyl-5-(2-(5,6,7,8-tetrahydro-1,8-naphthyridin-2-yl)ethoxy)-1H-pyrazol-3-yl)butanoic Acid]: the IC50 in assay [1] was 6.5 nM; in assay [2], 63 nM; in assay [3], 1.4 nM; in assay [4] it was 12 nM.
Take `COc1ccc(C(C)(C)C)cc1C(CC(=O)O)Cc1cc(OCCc2ccc3c(n2)NCCC3)n(C)n1` (centres unmarked) [Example 32, 3-(5-(tert-butyl)-2-methoxyphenyl)-4-(1-methyl-5-(2-(5,6,7,8-tetrahydro-1,8-naphthyridin-2-yl)ethoxy)-1H-pyrazol-3-yl)butanoic Acid]: in assay [1], the “inhibitory activity at ανβ3 (in words)” value is “low activity” and the IC50 was 380 nM. For the same molecule, in assay [2], the “inhibitory activity at ανβ6 (in words)” value is recorded as “low activity” and the IC50 stood at 230 nM. Further, in assay [3], the “inhibitory activity at ανβ1 (in words)” value is recorded as “high inhibitory activity” and the IC50 is 0.9 nM. In assay [4], the “inhibitory activity at α5β1 (in words)” value is “high inhibitory activity” and the IC50 turned out to be 33 nM.
Take `COc1c(C(CC(=O)O)Cc2cc(OCCc3ccc4c(n3)NCCC4)n(C)n2)cccc1C(C)(C)C` (centres unmarked) [Example 33, 3-(3-(tert-butyl)-2-methoxyphenyl)-4-(1-methyl-5-(2-(5,6,7,8-tetrahydro-1,8-naphthyridin-2-yl)ethoxy)-1H-pyrazol-3-yl)butanoic Acid]: the half-inhibitory concentration (IC50) in assay [1] worked out at 150 nM; in assay [2] it was 2400 nM; in assay [3], 2400 nM; in assay [4], 3900 nM.
As for `COc1cc(C(C)(C)C)ccc1C(CC(=O)O)Cc1cc(OCCc2ccc3c(n2)NCCC3)n(C)n1` (centres unmarked) [Example 34, 3-(4-(tert-butyl)-2-methoxyphenyl)-4-(1-methyl-5-(2-(5,6,7,8-tetrahydro-1,8-naphthyridin-2-yl)ethoxy)-1H-pyrazol-3-yl)butanoic Acid], the IC50 in assay [1] turned out to be 4.6 nM; in assay [2] it was 130 nM; in assay [3], 47 nM; in assay [4], 550 nM.
In the same order, the values of `Cn1nc(CC(CC(=O)O)c2cc(OC(F)(F)F)cc(C(C)(C)C)c2)cc1OCCc1ccc2c(n1)NCCC2` (centres unmarked) [Example 36, 3-[3-tert-butyl-5-(trifluoromethoxy)phenyl]-4-[1-methyl-5-[2-(5,6,7,8-tetrahydro-1,8-naphthyridin-2-yl)ethoxy]pyrazol-3-yl]butanoic Acid] are 10 nM, 120 nM, 6.5 nM and 7.1 nM.
The like results for `Cn1nc(CC(CC(=O)O)c2cc(C(C)(C)C)cc(C(F)(F)F)c2)cc1OCCc1ccc2c(n1)NCCC2` (centres unmarked) [Example 37, 3-[3-tert-butyl-5-(trifluoromethyl)phenyl]-4-[1-methyl-5-[2-(5,6,7,8-tetrahydro-1,8-naphthyridin-2-yl)ethoxyl]pyrazol-3-yl]butanoic Acid] were, in that order, 7.3 nM, 140 nM, 7.5 nM and 7.9 nM.
The like results for `Cn1nc(CC(CC(=O)O)c2cc(F)cc(C(C)(C)C)c2)cc1OCCc1ccc2c(n1)NCCC2` (centres unmarked) [Example 38, 3-(3-(tert-butyl)-5-fluorophenyl)-4-(1-methyl-5-(2-(5,6,7,8-tetrahydro-1,8-naphthyridin-2-yl)ethoxy)-1H-pyrazol-3-yl)butanoic Acid] were, in that order, 7.9 nM, 110 nM, 4.5 nM and 23 nM.
As for `COc1ccc(C(C)C)cc1C(CC(=O)O)Cc1cc(OCCc2ccc3c(n2)NCCC3)n(C)n1` (centres unmarked) [Example 39, 3-(5-isopropyl-2-methoxyphenyl)-4-(1-methyl-5-(2-(5,6,7,8-tetrahydro-1,8-naphthyridin-2-yl)ethoxy)-1H-pyrazol-3-yl)butanoic Acid Trifluoroacetate], the half-maximal inhibitory concentration (IC50) was determined as 290 nM in assay [1], 230 nM in assay [2], 3.2 nM in assay [3] and 31 nM in assay [4].
The like results for `CC(C)c1cc(Br)cc(C(CC(=O)O)Cc2cc(OCCc3ccc4c(n3)NCCC4)n(C)n2)c1` (centres unmarked) [Example 40, 3-(3-bromo-5-isopropyl-phenyl)-4-[1-methyl-5-[2-(5,6,7,8-tetrahydro-1,8-naphthyridin-2-yl)ethoxyl]pyrazol-3-yl]butanoic acid trifluoroacetate] were, in that order, 7.2 nM, 79 nM, 6.3 nM and 21 nM.
The like results for `CC(C)(C)c1cc(Br)cc(C(CC(=O)O)Cc2cc(OCCc3ccc4c(n3)NCCC4)n(CC(F)(F)F)n2)c1` (centres unmarked) [Example 41, 3-(3-bromo-5-tert-butyl-phenyl)-4-[5-[2-(5,6,7,8-tetrahydro-1,8-naphthyridin-2-yl)ethoxy]-1-(2,2,2-trifluoroethyl)pyrazol-3-yl]butanoic Acid Trifluoroacetate] were, in that order, 9 nM, 85 nM, 4.5 nM and 6.5 nM.
The like results for `Cn1nc(CC(CC(=O)O)c2cc(C(C)(C)C)ccc2O)cc1OCCc1ccc2c(n1)NCCC2` (centres unmarked) [Example 42, 3-(5-tert-butyl-2-hydroxy-phenyl)-4-[1-methyl-5-[2-(5,6,7,8-tetrahydro-1,8-naphthyridin-2-yl)ethoxyl]pyrazol-3-yl]butanoic Acid Sodium Salt] were, in that order, 18 nM, 20 nM, 2.4 nM and 2.1 nM.
Turning to `Cn1nc(CC(CC(=O)O)c2cc(C(C)(C)C)ccc2Cl)cc1OCCc1ccc2c(n1)NCCC2` (centres unmarked) [Example 43, 3-(5-(tert-butyl)-2-chlorophenyl)-4-(1-methyl-5-(2-(5,6,7,8-tetrahydro-1,8-naphthyridin-2-yl)ethoxy)-1H-pyrazol-3-yl)butanoic Acid Trifluoroacetate], the IC50 in assay [1] was found to be 94.4 nM; in assay [2], 800 nM; in assay [3] it was 7.3 nM; in assay [4] it was 77 nM.
